Measurements as given in ChEMBL document CHEMBL6078678, “Unveiling the Antimycobacterial Potential of Novel 4-Alkoxyquinolines: Insights into Selectivity, Mechanism of Action, and In Vivo Exposure” (J Med Chem, 2024).

Experiments:
Experiment in all cases: microbe, parasite or virus in culture
[1] = test system: Mycobacterium tuberculosis
[2] = test system: Mycobacterium tuberculosis; remark: listed apart in the source
[3] = test system: Mycobacterium tuberculosis; remark: listed apart in the source

Structure (SMILES)	MIC [1] [µM]	MIC [2] [µM]	MIC [3] [µM]
CCc1ccc(NCCCOc2cc(C)nc3ccc(Cl)cc23)cc1	< 0.06	< 0.06	< 0.06
COc1ccc2nc(C)cc(OCCCNc3ccc(I)cc3)c2c1	< 0.05	< 0.05	< 0.05
CCc1ccc(NCCCOc2cc(CC)nc3ccc(Br)cc23)cc1	< 0.05	< 0.05	< 0.05
COc1ccc2nc(C)cc(OCCCNc3ccc(Br)cc3)c2c1	< 0.05	< 0.05	< 0.05
Cc1cc(OCCCNc2ccc(Cl)cc2)c2cc(Br)ccc2n1	< 0.05	< 0.05	< 0.05
Cc1cc(OCCCNc2ccc(Br)cc2)c2cc(Cl)ccc2n1	< 0.06	< 0.06	< 0.06
CCc1ccc(NCCCOc2cc(C)nc3ccc(Br)cc23)cc1	< 0.05	< 0.05	< 0.05
